Assays:
[1] = system: Mycobacteria tuberculosis H37Rv; details: earlier work of the authors; cited from earlier work
[2] = mice, po once a day, 100 mg/kg five days, 2 days rest, 200 mg/kg five days
[3] = system: Mycobacterium tuberculosis H37Rv; experiment: Microplate Alamar Blue Assay; assay type: cell-based; details: for anti-TB activity (in words): qualitative statement; for MIC: medium not specified
[4] = Metabolic stability in rat liver microsomes; assay type: in vitro ADME, Sprague-Dawley rat; details: in vitro metabolism
[5] = system: panel of nontuberculosis mycobacteria and other bacteria (Gram positive and negative) as well as select strains of yeast; experiment: MIC against panel of nontuberculosis mycobacteria, other bacteria and yeast; assay type: cell-based; details: all strains of the panel; MIC's equal to negative control
[6] = system: Mycobacterium vaccae 10670 and Mycobacterium fortuitum B; experiment: Agar diffusion assay; assay type: cell-based
VERO cells = experiment: VERO cytotoxicity assay; details: compared with non-methyl analog
[7] = Mycobacterium tuberculosis, H37RV

## CCCCCCCCCCCCCCCC(=O)N(O)CCCC[C@H](NC(=O)[C@@H]1COC(c2ccccc2O)=N1)C(=O)OC[C@H](NC(=O)OC(C)(C)C)C(=O)N[C@H]1CCCCN(O)C1=O [Compound 2]
[1]
  effect on growth of Mycobacteria tuberculosis H37Rv: potent inhibition of TB growth

## O=C(OCc1ccccc1)[C@@H]1COC(c2ccccc2OCc2ccccc2)=N1 [Compound 3, (S)-Benzyl 2-(2-(benzyloxy)phenyl)-4,5-dihydrooxazole-4-carboxylate]
[2]
  tolerability (body weight, gross appearance and behavior): well tolerated

## O=C(O)[C@@H]1COC(c2ccccc2O)=N1 [Compound 4]
[3]
  anti-TB activity (in words): lost all activity

## COC(=O)[C@@H]1COC(c2ccccc2OCc2ccccc2)=N1 [Compound 12]
[3]
  anti-TB activity (in words): considerably less active

## O=C(OCc1ccccc1)[C@@H]1COC(c2ccccc2)=N1 [Compound 15, (S)-Benzyl 4,5-dihydro-2-phenyloxazole-4-carboxylate]
[4]
  major metabolite: the corresponding carboxylic acid
[5]
  MIC against panel (in words): inactive
[2]
  tolerability (body weight, gross appearance and behavior): well tolerated
[6]
  zones of inhibition: some zones of inhibition

## COC(=O)[C@@H]1COC(c2cccc(Cl)c2)=N1 [Compound 19]
[3]
  anti-TB activity (in words): considerably less active

## COC(=O)[C@@H]1COC(c2ccc([N+](=O)[O-])cc2)=N1 [Compound 27]
[3]
  anti-TB activity (in words): considerably less active

## O=C(OCc1ccccc1)[C@@H]1COC(c2ccc(F)c([N+](=O)[O-])c2)=N1 [Compound 29, (S)-Benzyl 2-(4-fluoro-3-nitrophenyl)-4,5-dihydrooxazole-4-carboxylate]
[5]
  MIC against panel (in words): inactive
[2]
  tolerability (body weight, gross appearance and behavior): well tolerated
[6]
  zones of inhibition: some zones of inhibition

## O=C(OCc1ccccc1)[C@@H]1COC(Cc2ccccc2)=N1 [Compound 43]
[3]
  anti-TB activity (in words): diminished activity

## COc1ccc(CC2=N[C@H](C(=O)OCc3ccccc3)CO2)cc1 [Compound 44]
[3]
  anti-TB activity (in words): diminished activity

## O=C(OCc1ccccc1)c1coc(-c2cccc(Cl)c2)n1 [Compound 59]
[3]; [7]
  MIC: < 1 µM

## COc1ccc(-c2nc(C(=O)OCc3ccccc3)co2)cc1 [Compound 60, Benzyl 2-(4-methoxyphenyl)oxazole-4-carboxylate]
[5]
  MIC against panel (in words): inactive
[2]
  tolerability (body weight, gross appearance and behavior): well tolerated
[6]
  zones of inhibition: some zones of inhibition

## O=C(OCc1ccccc1)c1coc(-c2ccccc2OCc2ccccc2)n1 [Compound 63, Benzyl 2-(2-(benzyloxy)phenyl)oxazole-4-carboxylate]
[5]
  MIC against panel (in words): inactive
[2]
  tolerability (body weight, gross appearance and behavior): well tolerated
[6]
  zones of inhibition: some zones of inhibition

## O=C(OCc1ccccc1)c1coc(-c2ccccc2)n1 [Compound 65, Benzyl 2-phenyloxazole-4-carboxylate]
[5]
  MIC against panel (in words): inactive
[2]
  tolerability (body weight, gross appearance and behavior): well tolerated
[6]
  zones of inhibition: some zones of inhibition
[3]; [7]
  MIC: < 1 µM
[3]
  MIC: < 0.5 µM

## O=C(OCc1ccccc1)c1coc(-c2ccc(F)c([N+](=O)[O-])c2)n1 [Compound 66, Benzyl 2-(4-fluoro-3-nitrophenyl)oxazole-4-carboxylate]
[5]
  MIC against panel (in words): inactive
[6]
  zones of inhibition: some zones of inhibition
[3]; [7]
  MIC: < 1 µM

## O=C(OCc1ccccc1)c1coc(-c2ccccc2Cl)n1 [Compound 68, Benzyl 2-(2-chlorophenyl)oxazole-4-carboxylate]
[5]
  MIC against panel (in words): inactive
[2]
  tolerability (body weight, gross appearance and behavior): well tolerated
[6]
  zones of inhibition: some zones of inhibition
[3]; [7]
  MIC: < 1 µM

## O=C(OCc1ccccc1)c1coc(-c2ccc([N+](=O)[O-])cc2F)n1 [Compound 70]
[3]; [7]
  MIC: < 1 µM

## O=C(OCc1ccccc1)c1coc(-c2cncc(-c3ccccc3)c2)n1 [Compound 78]
[3]; [7]
  MIC: < 1 µM

## O=C(OCc1ccccc1)c1coc(-c2cccc(F)c2)n1 [Compound 89]
[3]; [7]
  MIC: < 1 µM

## Cc1oc(-c2ccccc2)nc1C(=O)OCc1ccccc1 [Compound 109]
VERO cells
  toxicity in the VERO assay (in words): greatly increased toxicity
[3]
  anti-TB activity (in words): diminished anti-TB activity

## COc1ccc(-c2nc(C(=O)OCc3ccccc3)c(C)o2)cc1 [Compound 110]
[3]
  anti-TB activity (in words): diminished anti-TB activity

## Cc1oc(-c2ccc(F)cc2[N+](=O)[O-])nc1C(=O)OCc1ccccc1 [Compound 111]
[3]
  anti-TB activity (in words): diminished anti-TB activity

## CCCCCCCCCCCCCCCC(=O)N(O)CCCC[C@H](NC(=O)[C@@H]1COC(c2ccccc2O)=N1)C(=O)O[C@@H](C)CC(=O)N[C@H]1CCCCN(O)C1=O [Mycobactin S]
[1]
  effect on growth of Mycobacteria tuberculosis H37Rv: inhibits the growth

## mycobactin T
[1]
  effect on growth of Mycobacteria tuberculosis H37Rv: promotes growth

From publication PMC2843756 (European journal of medicinal chemistry, 2010)
